Experimental data: patent US20130040944A1, “MGLUR4 ALLOSTERIC POTENTIATORS, COMPOSITIONS, AND METHODS OF TREATING NEUROLOGICAL DYSFUNCTION” (VANDERBILT UNIVERSITY, priority 2009, published 2013)

What follows are compounds tested against human mGluR4 (Homo sapiens, UniProt Q14833) (assay: potentiation of human mGluR4 in transfected CHO cells, Ca2+-sensitive dye fluorescence, EC20 agonist). Settings: CHO, read-out: % Glu Max.
human mGluR4, sequence (Q14833 33-912): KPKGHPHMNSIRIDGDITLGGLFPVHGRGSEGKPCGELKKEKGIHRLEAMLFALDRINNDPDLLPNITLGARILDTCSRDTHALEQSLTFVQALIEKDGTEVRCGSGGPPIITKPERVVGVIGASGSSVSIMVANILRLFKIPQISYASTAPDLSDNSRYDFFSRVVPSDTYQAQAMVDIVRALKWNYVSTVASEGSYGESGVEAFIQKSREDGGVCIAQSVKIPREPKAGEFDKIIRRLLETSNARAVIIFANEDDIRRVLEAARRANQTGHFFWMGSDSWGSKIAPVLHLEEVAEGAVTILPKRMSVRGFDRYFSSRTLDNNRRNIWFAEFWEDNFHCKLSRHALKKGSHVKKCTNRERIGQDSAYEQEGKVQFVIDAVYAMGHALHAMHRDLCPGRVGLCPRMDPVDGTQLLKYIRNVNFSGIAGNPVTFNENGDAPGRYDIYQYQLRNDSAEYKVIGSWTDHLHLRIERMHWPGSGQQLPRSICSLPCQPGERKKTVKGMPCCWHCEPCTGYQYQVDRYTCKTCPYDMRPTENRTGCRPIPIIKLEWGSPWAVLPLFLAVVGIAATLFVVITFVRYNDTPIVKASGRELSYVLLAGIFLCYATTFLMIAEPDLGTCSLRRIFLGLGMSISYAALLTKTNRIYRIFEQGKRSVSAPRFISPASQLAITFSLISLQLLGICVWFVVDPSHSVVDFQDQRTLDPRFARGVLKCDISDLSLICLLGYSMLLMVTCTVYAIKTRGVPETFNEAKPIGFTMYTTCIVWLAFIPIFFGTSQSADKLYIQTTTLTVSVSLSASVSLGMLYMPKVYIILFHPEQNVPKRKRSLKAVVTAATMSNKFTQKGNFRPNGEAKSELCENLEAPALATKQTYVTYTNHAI

**Q.** How did the Emax turn out when `O=C(Nc1ccn(S(=O)(=O)Cc2ccccc2)c1)c1ccccc1` [Example 6, N-(1-(benzylsulfonyl)-1H-pyrrol-3-yl)benzamide] was run?
**A.** The Emax was 55%.

**Q.** How did the Emax turn out when `Cc1cccc(C(=O)Nc2ccn(S(=O)(=O)Cc3ccccc3)c2)n1` [Example 43, N-(1-(benzylsulfonyl)-1H-pyrrol-3-yl)-6-methylpicolinamide] was run?
**A.** Its Emax is 90%.

**Q.** For `O=C(Nc1ccn(S(=O)(=O)Cc2ccc(Cl)c(Cl)c2)c1)c1ccccn1` [Example 34], which Emax is on record?
**A.** Its Emax is 159%.

Same assay, conditions: EC50 (nM), potentiation of EC20 agonist response; Table I

**Q.** For `O=C(Nc1ccn(S(=O)(=O)Cc2ccccc2)c1)c1ccccc1` [Example 6, N-(1-(benzylsulfonyl)-1H-pyrrol-3-yl)benzamide], which EC50 is on record?
**A.** The EC50 was 951 nM.

**Q.** With `Cc1cccc(C(=O)Nc2ccn(S(=O)(=O)Cc3ccccc3)c2)n1` [Example 43, N-(1-(benzylsulfonyl)-1H-pyrrol-3-yl)-6-methylpicolinamide] as the compound, how does the EC50 read?
**A.** The EC50 was 9540 nM.

Same assay, conditions: hEC50, human mGluR4 potentiation; unit inferred

**Q.** `O=C(Nc1ccn(S(=O)(=O)c2cc(Cl)ccc2Cl)c1)c1ccccn1` [Example 78, N-(1-((2,5-dichlorophenyl)sulfonyl)-1H-pyrrol-3-yl)picolinamide] was tested. Which EC50 did it give?
**A.** The EC50 was 57.6 nM.

**Q.** `Cc1ccc(S(=O)(=O)n2ccc(NC(=O)c3ccccn3)c2)cc1C` [Example 82, N-(1-((3,4-dimethylphenyl)sulfonyl)-1H-pyrrol-3-yl)picolinamide] was tested. Which EC50 did it give?
**A.** The EC50 was 139 nM.

**Q.** `Cc1cc(S(=O)(=O)n2ccc(NC(=O)c3ccccn3)c2)ccc1Cl` [Example 83, N-(1-((4-chloro-3-methylphenyl)sulfonyl)-1H-pyrrol-3-yl)picolinamide] was tested. Which EC50 did it give?
**A.** Its EC50 is 447 nM.

**Q.** For `O=C(Nc1ccn(S(=O)(=O)Cc2ccccc2Cl)c1)c1csnn1` [Example 66, N-(1-((2-chlorobenzyl)sulfonyl)-1H-pyrrol-3-yl)-1,2,3-thiadiazole-4-carboxamide], which EC50 is on record?
**A.** The EC50 was 307 nM.

**Q.** Which EC50 does the source give for `O=C(Nc1ccn(S(=O)(=O)c2ccc3c(c2)OCCO3)c1)c1ccccn1` [Example 156, N-(1-((2,3-dihydrobenzo[b][1,4]dioxin-6-yl)sulfonyl)-1H-pyrrol-3-yl)picolinamide] here?
**A.** Its EC50 is 45.3 nM.

**Q.** `COc1ccc(S(=O)(=O)n2ccc(NC(=O)c3ccccn3)c2)cc1OC` [Example 101, N-(1-((3,4-dimethoxyphenyl)sulfonyl)-1H-pyrrol-3-yl)picolinamide] was tested. Which EC50 did it give?
**A.** Its EC50 is 5730 nM.

**Q.** `O=C(Nc1ccn(S(=O)(=O)c2ccccn2)c1)c1ccccn1` [Example 160, N-(1-(pyridin-2-ylsulfonyl)-1H-pyrrol-3-yl)picolinamide] was tested. Which EC50 did it give?
**A.** Its EC50 is 1490 nM.

**Q.** `O=C(Nc1ccn(S(=O)(=O)c2ccco2)c1)c1ccccn1` [Example 123, N-(1-(furan-2-ylsulfonyl)-1H-pyrrol-3-yl)picolinamide] was tested. Which EC50 did it give?
**A.** The EC50 was 686 nM.

**Q.** With `O=C(Nc1ccn(S(=O)(=O)C(F)c2ccccc2F)c1)c1ccccn1` (stereo not drawn) [Example 105, N-(1-((fluoro(2-fluorophenyl)methyl)sulfonyl)-1H-pyrrol-3-yl)picolinamide] as the compound, how does the EC50 read?
**A.** Its EC50 is 426 nM.

**Q.** With `Cc1ccc(C(=O)Nc2ccn(S(=O)(=O)Cc3ccc(Cl)cc3)c2)nc1` [Example 97, N-(1-((4-chlorobenzyl)sulfonyl)-1H-pyrrol-3-yl)-5-methylpicolinamide] as the compound, how does the EC50 read?
**A.** Its EC50 is 431 nM.

**Q.** With `Cc1nc(C)c(S(=O)(=O)n2ccc(NC(=O)c3ccccn3)c2)s1` [Example 127, N-(1-((2,4-dimethylthiazol-5-yl)sulfonyl)-1H-pyrrol-3-yl)picolinamide] as the compound, how does the EC50 read?
**A.** The EC50 was 2950 nM.

**Q.** Which EC50 does the source give for `O=C(Nc1ccn(S(=O)(=O)c2ccc(Cl)c(F)c2)c1)c1ccccn1` [Example 103, N-(1-((4-chloro-3-fluorophenyl)sulfonyl)-1H-pyrrol-3-yl)picolinamide] here?
**A.** The EC50 was 389 nM.

**Q.** With `O=C(Nc1ccn(S(=O)(=O)Cc2ccccc2Cl)c1)c1nccs1` [Example 52, N-(1-((2-chlorobenzyl)sulfonyl)-1H-pyrrol-3-yl)thiazole-2-carboxamide] as the compound, how does the EC50 read?
**A.** Its EC50 is 767 nM.

**Q.** How did the EC50 turn out when `COc1ccc(S(=O)(=O)n2ccc(NC(=O)c3ccco3)c2)cn1` [Example 168, N-(1-((6-methoxypyridin-3-yl)sulfonyl)-1H-pyrrol-3-yl)furan-2-carboxamide] was run?
**A.** Its EC50 is 2120 nM.

**Q.** For `O=C(Nc1ccn(S(=O)(=O)Cc2ccccc2Cl)c1)c1cscn1` [Example 62, N-(1-((2-chlorobenzyl)sulfonyl)-1H-pyrrol-3-yl)thiazole-4-carboxamide], which EC50 is on record?
**A.** Its EC50 is 492 nM.

**Q.** `N#Cc1ccc(S(=O)(=O)n2ccc(NC(=O)c3ccccn3)c2)cc1` [Example 130, N-(1-((4-cyanophenyl)sulfonyl)-1H-pyrrol-3-yl)picolinamide] was tested. Which EC50 did it give?
**A.** The EC50 was 220 nM.

**Q.** Which EC50 does the source give for `O=C(Nc1ccn(S(=O)(=O)Cc2c(F)cccc2F)c1)c1nccs1` [Example 93, N-(1-((2,6-difluorobenzyl)sulfonyl)-1H-pyrrol-3-yl)thiazole-2-carboxamide] here?
**A.** The EC50 was 343 nM.

**Q.** How did the EC50 turn out when `O=C(Nc1ccn(S(=O)(=O)c2ccc(F)c(Cl)c2)c1)c1ccccn1` [Example 128, N-(1-((3-chloro-4-fluorophenyl)sulfonyl)-1H-pyrrol-3-yl)picolinamide] was run?
**A.** The EC50 was 640 nM.

**Q.** `CN1CCOc2cc(S(=O)(=O)n3ccc(NC(=O)c4ccccn4)c3)ccc21` [Example 146, N-(1-((4-methyl-3,4-dihydro-2H-benzo[b][1,4]oxazin-7-yl)sulfonyl)-1H-pyrrol-3-yl)picolinamide] was tested. Which EC50 did it give?
**A.** Its EC50 is 144 nM.

**Q.** How did the EC50 turn out when `Cc1ccc(S(=O)(=O)n2ccc(NC(=O)c3ccccn3)c2)cc1Cl` [Example 112, N-(1-((3-chloro-4-methylphenyl)sulfonyl)-1H-pyrrol-3-yl)picolinamide] was run?
**A.** The EC50 was 129 nM.

**Q.** With `COc1cccc(S(=O)(=O)n2ccc(NC(=O)c3ccccn3)c2)c1` [Example 88, N-(1-((3-methoxyphenyl)sulfonyl)-1H-pyrrol-3-yl)picolinamide] as the compound, how does the EC50 read?
**A.** The EC50 was 230 nM.

**Q.** With `CC1(C)CCc2cc(S(=O)(=O)n3ccc(NC(=O)c4ccccn4)c3)ccc2O1` [Example 149, N-(1-((2,2-dimethylchroman-6-yl)sulfonyl)-1H-pyrrol-3-yl)picolinamide] as the compound, how does the EC50 read?
**A.** Its EC50 is 351 nM.

**Q.** With `Cc1cccc(S(=O)(=O)n2ccc(NC(=O)c3nccs3)c2)c1` [Example 53, N-(1-(m-tolylsulfonyl)-1H-pyrrol-3-yl)thiazole-2-carboxamide] as the compound, how does the EC50 read?
**A.** Its EC50 is 767 nM.

**Q.** `O=C(Nc1ccn(S(=O)(=O)c2ccc(Cl)c(Cl)c2)c1)c1ccccn1` [Example 100, N-(1-((3,4-dichlorophenyl)sulfonyl)-1H-pyrrol-3-yl)picolinamide] was tested. Which EC50 did it give?
**A.** The EC50 was 466 nM.

**Q.** For `O=C(Nc1cn(S(=O)(=O)c2ccc(Cl)cc2)c2ccccc12)c1ccccn1` [Example 111, N-(1-((4-chlorophenyl)sulfonyl)-1H-indol-3-yl)picolinamide], which EC50 is on record?
**A.** Its EC50 is 12200 nM.

**Q.** For `O=C(Nc1ccn(S(=O)(=O)Cc2ccccc2Cl)c1)c1ncccc1F` [Example 65, N-(1-((2-chlorobenzyl)sulfonyl)-1H-pyrrol-3-yl)-3-fluoropicolinamide], which EC50 is on record?
**A.** The EC50 was 6970 nM.

**Q.** Which EC50 does the source give for `O=C(Nc1ccn(S(=O)(=O)Cc2ccc(Cl)cc2)c1)c1ccccn1` [Example 95, N-(1-((4-chlorobenzyl)sulfonyl)-1H-pyrrol-3-yl)picolinamide] here?
**A.** The EC50 was 336 nM.

**Q.** With `O=C(Nc1ccn(S(=O)(=O)c2ccc3c(c2)OCCCO3)c1)c1ccccn1` [Example 148, N-(1-((3,4-dihydro-2H-benzo[b][1,4]dioxepin-7-yl)sulfonyl)-1H-pyrrol-3-yl)picolinamide] as the compound, how does the EC50 read?
**A.** The EC50 was 41.1 nM.

**Q.** For `O=C(Nc1ccn(S(=O)(=O)c2cnc3ccccc3c2)c1)c1ccccn1` [Example 136, N-(1-(quinolin-3-ylsulfonyl)-1H-pyrrol-3-yl)picolinamide], which EC50 is on record?
**A.** The EC50 was 253 nM.

**Q.** `O=C(Nc1ccn(S(=O)(=O)c2ccc(CCl)cc2)c1)c1ccccn1` [Example 147, N-(1-((4-(chloromethyl)phenyl)sulfonyl)-1H-pyrrol-3-yl)picolinamide] was tested. Which EC50 did it give?
**A.** Its EC50 is 225 nM.

**Q.** With `O=C(Nc1ccn(S(=O)(=O)Cc2ccc(F)cc2Cl)c1)c1ccccn1` [Example 57, N-(1-((2-chloro-4-fluorobenzyl)sulfonyl)-1H-pyrrol-3-yl)picolinamide] as the compound, how does the EC50 read?
**A.** Its EC50 is 125 nM.
